As usually defined, the IC50 is the point on the concentration scale where inhibition reaches its midpoint.

In patent US20060004002A1 (priority 2004, published 2006) one finds IC50 data, which are given here for 19 compounds.

SMILES strings stand for the structures. Like-named read-outs stand apart in the source and are kept apart here. Some results are limits rather than exact numbers.

Common to all, as to format: biochemical
One assay concerns the target T1, Recombinant human Src (Homo sapiens, UniProt P12931).
T1 construct: made in house; host or cells: baculovirus-insect cell system
The assay is described as follows: Src tyrosine kinase activity assay with poly E4Y and 32P-ATP. In short, it runs like this:
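Src expressed in baculovirus-insect cells; Csk and FGFr expressed as GST fusions in E. coli. Kinase activity measured as 32P transfer from γ32P-ATP (0.2 mM, 0.2-0.4 mCi/μmol) to poly E4Y in 0.15 M EPPS-NaOH pH 8.0, 6 mM MgCl2, 10% glycerol, 0.1% Triton X-100; in ATP-variation runs (0-250 μM), poly E4Y fixed at 150 μg/ml.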

The target of a further assay is T2, Recombinant Csk (Homo sapiens, UniProt P41240).
T2 construct: GST ('glutathione-5-transferase' [sic]); made in house; host or cells: E. coli (pGEX expression vector)
Description: Csk tyrosine kinase activity assay with poly E4Y and 32P-ATP. To be noted: NI = no inhibition. Here is the method:
(§1) Recombinant human Src was expressed using the baculovirus-insect cell system and purified as published (Budde et al., 1993 and 2000). Recombinant Csk and the FGF receptor (FGFr) were expressed as […] fusion proteins using the pGEX expression vector and E. coli, and purified as described (Sun & Budde, 1995).
(§2) The tyrosine kinase activity of Src, Csk and FGFr was determined using poly E4Y and ^32P-ATP. Briefly, enzymes were assayed in a reaction mixture […] consisting of 0.15 M EPPS-NaOH (pH 8.0) with 6 mM MgCl2, 0.2 mM γ^32P-ATP (0.2-0.4 mCi/μmol), 10% glycerol, 0.1% Triton X-100, and poly E4Y. Poly E4Y is a synthetic peptide whose phosphorylation is measured in this assay by the addition of the radioactively labeled phosphate from the ATP (Budde et al., 1995). […] When ATP was varied (0, 50, 100 and 250 μM), poly E4Y was kept constant at 150 μg/ml.

In the next assay the target is T3, FGF receptor (FGFr).
T3 construct: fused on or other part: glutathione-S-transferase (GST) from the pGEX vector
The assay is described as follows: FGFr tyrosine kinase activity assay with poly E4Y and 32P-ATP. Conditions: NI = no inhibition. The method, then: as §1, §2

[1] abbreviates: poly E4Y, 32P-ATP, NI = no inhibition, read-out: IC50 Value Src.
Where [2] appears, read: especially good inhibitors of Src, screening assay 50 μg/ml poly E4Y, 0.2 mM ATP, read-out: IC50 (inhibitors of Src).

T2 sequence (P41240 whole entry, species assumed): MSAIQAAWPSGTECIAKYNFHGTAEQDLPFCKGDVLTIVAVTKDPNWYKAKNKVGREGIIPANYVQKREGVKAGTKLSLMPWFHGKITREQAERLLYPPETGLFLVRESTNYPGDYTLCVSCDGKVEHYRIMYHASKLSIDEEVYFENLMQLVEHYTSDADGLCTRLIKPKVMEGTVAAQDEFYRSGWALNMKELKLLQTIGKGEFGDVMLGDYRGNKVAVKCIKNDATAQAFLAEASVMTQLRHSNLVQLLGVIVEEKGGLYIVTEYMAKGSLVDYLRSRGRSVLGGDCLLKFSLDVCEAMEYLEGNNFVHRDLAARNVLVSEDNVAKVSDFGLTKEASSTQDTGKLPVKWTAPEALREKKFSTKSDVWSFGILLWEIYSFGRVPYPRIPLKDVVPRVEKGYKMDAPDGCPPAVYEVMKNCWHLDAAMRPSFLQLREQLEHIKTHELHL
T1 sequence (P12931 whole entry): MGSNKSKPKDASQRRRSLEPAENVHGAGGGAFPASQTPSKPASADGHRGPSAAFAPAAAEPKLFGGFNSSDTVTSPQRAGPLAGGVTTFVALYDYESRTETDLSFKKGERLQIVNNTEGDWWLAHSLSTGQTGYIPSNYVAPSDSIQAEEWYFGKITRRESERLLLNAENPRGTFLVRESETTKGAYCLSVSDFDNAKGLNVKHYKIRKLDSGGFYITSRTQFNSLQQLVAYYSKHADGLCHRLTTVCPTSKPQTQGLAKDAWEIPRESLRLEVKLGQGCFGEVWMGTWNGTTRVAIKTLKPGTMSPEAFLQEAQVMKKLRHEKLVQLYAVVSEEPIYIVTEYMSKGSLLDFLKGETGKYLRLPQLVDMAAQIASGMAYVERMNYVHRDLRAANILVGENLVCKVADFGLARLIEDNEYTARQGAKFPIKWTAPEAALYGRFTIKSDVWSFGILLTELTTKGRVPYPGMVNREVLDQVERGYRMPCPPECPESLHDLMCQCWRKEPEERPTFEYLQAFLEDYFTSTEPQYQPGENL

Regarding `COc1ccc(C=NNc2ncnc3c(C)c(-c4ccc(CN5CCOCC5)cc4)sc23)cc1O` [Compound 46, 3-Hydroxy-4-methoxybenzaldehyde (6-(4-(morpholin-4-yl)methyl-phenyl)-7-methylthieno[3,2-d]pyrimidin-4-yl)hydrazone], the IC50 worked out at 5.5 nM on Recombinant human Src (setting [1]), 102000 nM at Recombinant Csk and 102000 nM on FGF receptor (FGFr).

Take `CCOc1cc(F)ccc1-c1sc2c(NN=Cc3ccc(OC)c(O)c3)ncnc2c1CO` [Compound 60, 3-Hydroxy-4-methoxybenzaldehyde (6-(2-ethoxy-4-fluorophenyl)-7-hydroxymethylthieno[3,2-d]pyrimidin-4-yl)hydrazone]: the 50% inhibitory concentration (IC50) was determined as 36 nM at Recombinant human Src (setting [1]) and 210000 nM at Recombinant Csk.

Consider `COc1ccc(C=NNc2ncnc3c(C)c(-c4ccccc4O)sc23)cc1O` [Compound 84, 3-Hydroxy-4-methoxybenzaldehyde (6-(2-hydroxyphenyl)-7-methylthieno[3,2-d]pyrimidin-4-yl)hydrazone], for which the IC50 was 180 nM at Recombinant human Src (setting [1]) and 500000 nM on Recombinant Csk.

As for `CCCOc1ccccc1-c1sc2c(NN=Cc3cccs3)ncnc2c1O` [Compound 85], the IC50 turned out to be 4.8 nM on Recombinant human Src (setting [1]), 17700 nM at Recombinant Csk and 7500 nM at FGF receptor (FGFr).

As for `CCOc1ccccc1-c1sc2c(NN=Cc3ccc(O)c(OC)c3)ncnc2c1O` [Compound 88, 4-Hydroxy-3-methoxybenzaldehyde (6-(2-ethoxyphenyl)-7-hydroxythieno[3,2-d]pyrimidin-4-yl)hydrazone], the IC50 is 2.5 nM at Recombinant human Src (setting [1]), 3400 nM on Recombinant Csk and 2300 nM on FGF receptor (FGFr).

As to `CCOc1ccccc1-c1sc2c(NN=Cc3cc(Br)c(O)c(OC)c3)ncnc2c1O` [Compound 89, 3-Bromo-4-hydroxy-5-methoxybenzaldehyde (6-(2-ethoxyphenyl)-7-hydroxythieno[3,2-d]pyrimidin-4-yl)hydrazone], the IC50 at Recombinant human Src (setting [1]) was 2.5 nM; at Recombinant Csk, 2900 nM; at FGF receptor (FGFr), 1900 nM.

On to `CCOc1ccccc1-c1sc2c(NN=Cc3ccc(O)c(Cl)c3)ncnc2c1O` [Compound 92, 3-Chloro-4-hydroxybenzaldehyde (6-(2-ethoxyphenyl)-7-hydroxythieno[3,2-d]pyrimidin-4-yl)hydrazone], for which the values for the IC50 on Recombinant human Src (setting [1]), on Recombinant Csk and at FGF receptor (FGFr) were 4.2 nM, 11300 nM and 27700 nM, respectively.

Take `CCOc1ccccc1-c1sc2c(NN=Cc3cc(OC)c(O)c(OC)c3)ncnc2c1O` [Compound 96, 3,5-Dimethoxy-4-hydroxybenzaldehyde (6-(2-ethoxyphenyl)-7-hydroxythieno[3,2-d]pyrimidin-4-yl)hydrazone]: the IC50 at Recombinant human Src (setting [2]) was not above 2000 nM; on Recombinant human Src (setting [1]) it was 0.73 nM; on Recombinant Csk, 580 nM.

Regarding `CCOc1ccccc1-c1sc2c(NN=Cc3cc(O)c(OC)c(OC)c3)ncnc2c1O` [Compound 100, 3,4-Dimethoxy-5-hydroxybenzaldehyde (6-(2-ethoxyphenyl)-7-hydroxythieno[3,2-d]pyrimidin-4-yl)hydrazone], the half-inhibitory concentration (IC50) at Recombinant human Src (setting [1]) is 1.3 nM; at Recombinant Csk, 2100 nM.

For `CCOc1ccccc1-c1sc2c(NN=Cc3ccc(O)cc3)ncnc2c1O` [Compound 104, 4-Hydroxybenzaldehyde (6-(2-ethoxyphenyl)-7-hydroxythieno[3,2-d]pyrimidin-4-yl)hydrazone], the IC50 was not above 2000 nM on Recombinant human Src (setting [2]), 1.6 nM on Recombinant human Src (setting [1]) and 980 nM at Recombinant Csk.

Consider `CCOc1ccccc1-c1sc2c(NN=Cc3cccc(O)c3)ncnc2c1O` [Compound 105, 3-Hydroxybenzaldehyde (6-(2-ethoxyphenyl)-7-hydroxythieno[3,2-d]pyrimidin-4-yl)hydrazone], for which the IC50 on Recombinant human Src (setting [2]) is not above 2000 nM; at Recombinant human Src (setting [1]), 4.3 nM; on Recombinant Csk it was 900 nM.

On to `CCOc1ccccc1-c1sc2c(NN=Cc3ccncc3)ncnc2c1O` [Compound 112, 4-Pyridinecarboxaldehyde (6-(2-ethoxyphenyl)-7-hydroxythieno[3,2-d]pyrimidin-4-yl)hydrazone], for which the IC50 stood at 4 nM at Recombinant human Src (setting [1]) and 7200 nM on Recombinant Csk.

As to `CCOc1ccccc1-c1sc2c(NN=Cc3cccc(C(=O)O)c3)ncnc2c1O` [Compound 116, 3-Carboxybenzaldehyde (6-(2-ethoxyphenyl)-7-hydroxythieno[3,2-d]pyrimidin-4-yl)hydrazone], the IC50 at Recombinant human Src (setting [1]) worked out at 5 nM; on Recombinant Csk it was 7100 nM.

`CCOc1ccccc1-c1sc2c(NN=Cc3[nH]cnc3C)ncnc2c1O` [Compound 117, 4-Methyl-5-imidazolecarboxaldehyde (6-(2-ethoxyphenyl)-7-hydroxythieno[3,2-d]pyrimidin-4-yl)hydrazone]: the IC50 at Recombinant human Src (setting [1]) stood at 5 nM; on Recombinant Csk, 5500 nM.

With `CCOc1ccccc1-c1sc2c(NN=Cc3ccco3)ncnc2c1O` [Compound 121, 2-Furancarboxaldehyde (6-(2-ethoxyphenyl)-7-hydroxythieno[3,2-d]pyrimidin-4-yl)hydrazone], the IC50 on Recombinant human Src (setting [1]) was 6 nM; on Recombinant Csk, 5000 nM.

Regarding `CCOc1ccccc1-c1sc2c(NN=Cc3sccc3C)ncnc2c1O` [Compound 124, 3-Methyl-2-thiophenecarboxaldehyde (6-(2-ethoxyphenyl)-7-hydroxythieno[3,2-d]pyrimidin-4-yl)hydrazone], the figures for the concentration for half-maximal inhibition (IC50) at Recombinant human Src (setting [1]) and on Recombinant Csk were 9 nM and 15000 nM, respectively.

On to `COc1ccc(C=NNc2ncnc3c(C#N)c(-c4ccc(N)cc4)sc23)cc1O` [compound 59], for which the half-maximal inhibitory concentration (IC50) on Recombinant human Src (setting [1]) turned out to be 16 nM; at Recombinant Csk it was 10000 nM.

For `CCOc1ccccc1-c1sc2c(NN=Cc3ccc(C(=O)O)cc3)ncnc2c1C#N` [compound 68], the IC50 was 1.4 nM at Recombinant human Src (setting [1]) and 26000 nM on Recombinant Csk.

Turning to `CCOc1ccccc1-c1sc2c(NN=Cc3cccc(O)c3)ncnc2c1C#N` [compound 103], the figures for the IC50 on Recombinant human Src (setting [1]) and at Recombinant Csk were 1.5 nM and 13000 nM, respectively.
